Measured values reported in publication PMC10303271, “Synthesis and Receptor Binding Studies of α5 GABAAR Selective Novel Imidazodiazepines Targeted for Psychiatric and Cognitive Disorders” (Molecules, 2023).
Where two headings read alike, the source gives them in different places.

Legend:
M4 D = target: T1, M4 D (Homo sapiens, UniProt P08173, A203G/Y113C); assay: PDSP primary binding M4 D; settings: primary binding, 10,000 nM; last figure of the line = mean of the 4 before it; read-out: M4 D, PDSP raw data, mean
T1 construct: purchased NIMH Psychoactive Drug Screening Program (PDSP)
T1 sequence (P08173 1-479 Y113C/A203G): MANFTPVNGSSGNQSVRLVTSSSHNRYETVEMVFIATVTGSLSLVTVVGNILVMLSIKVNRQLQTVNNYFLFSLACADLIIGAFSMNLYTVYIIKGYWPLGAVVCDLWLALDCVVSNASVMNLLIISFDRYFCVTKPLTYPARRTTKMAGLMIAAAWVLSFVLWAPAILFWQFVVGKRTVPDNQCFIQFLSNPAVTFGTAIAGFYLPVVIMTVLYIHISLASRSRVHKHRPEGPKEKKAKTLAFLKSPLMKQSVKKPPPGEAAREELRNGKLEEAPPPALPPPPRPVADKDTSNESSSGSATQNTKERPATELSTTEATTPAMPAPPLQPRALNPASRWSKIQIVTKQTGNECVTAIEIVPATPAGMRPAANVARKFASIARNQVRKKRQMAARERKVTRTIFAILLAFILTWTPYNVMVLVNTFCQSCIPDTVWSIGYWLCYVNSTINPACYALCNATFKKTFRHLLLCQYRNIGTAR
Procedure: (§1) To determine if any off-target receptor-binding effects are present, all the novel ligands were sent to the National Institute of Mental Health (NIMH), Psychoactive Drug Screening Program (PDSP). The ligands were screened over a panel of 47 receptors, ion channels, and transporters to determine any other possible interactions with […]. The hERG-binding was also determined. […] No binding of the test compounds to calcium channels was observed. […] It is necessary to screen the compounds for hERG-binding during the early process of drug discovery. The unintentional binding of many drugs to hERG can cause blockade of hERG K+ channels in the heart, which can cause many side effects including cardiac arrhythmias and sudden death. […] All of the α5 imidazodiazepines were tested for hERG-binding.
(§2) The NIMH PDSP assay protocol book [https://kidbdev.med.unc.edu/databases/PDSP%20Protocols%20II%202013-03-28.pdf accessed on 23 April 2023]. describes the protocols for primary and secondary radio-ligand binding assays. These assays were carried out in a final volume of 125 µL per well in the appropriate binding buffer.
(§3) The binding of a ligand to a receptor, ion channel, or transporter was determined in the […] of 10 µM of the appropriate reference compound. […] Plates were incubated in the dark for 90 min at rt, and the reactions were stopped by vacuum filtration onto 0.3% polyethyleneimine (PEI) soaked 96-well filter mats using a 96-well Filtermateharvester. This was followed by three washes with cold PBS buffer. Radioactivity was then counted on a Microbeta counter. Nonlinear regression was used to analyze the data with N = 6 replicates.

A2A = target: T2, A2A (Homo sapiens, UniProt P29274); assay: PDSP primary binding A2A; settings: primary binding, 10,000 nM; last figure of the line = mean of the 4 before it
T2 construct: purchased NIMH Psychoactive Drug Screening Program (PDSP)
Procedure: as §1, §2, §3

Kainate (Rat Brain) = assay: PDSP primary binding Kainate (Rat Brain); settings: primary binding, 10,000 nM; last figure of the line = mean of the 4 before it
Procedure: as §1, §2, §3

Beta3 = target: T3, Beta3 (Homo sapiens, UniProt P13945); assay: PDSP primary binding Beta3; settings: 1.5 h; primary binding, 10,000 nM; last figure of the line = mean of the 4 before it; read-out: Beta3, PDSP raw data, mean
T3 construct: purchased NIMH Psychoactive Drug Screening Program (PDSP)
Procedure: as §1, §2, §3

DOR = target: T4, DOR (Homo sapiens, UniProt P41143); assay: PDSP radioligand binding at DOR
T4 construct: purchased NIMH Psychoactive Drug Screening Program (PDSP)
Text: Opioid receptors are a family of inhibitory G-coupled protein receptors where opioids act as the ligand. The kappa opioid receptors (KOR), µ and δ opioid receptors (MOR and DOR), and nociception opioid receptor (NOP) fall under the family of opioids receptors. It has been reported that oxadiazole imidazodiazepines can mediate analgesic and anti-inflammatory properties mediated also by the κ opioid receptor (KOR). The binding at KOR is usually silent. The affinities of the test compounds for KOR, DOR, and MOR were determined using radioligand binding assays at a screening concentration of 10,000 nM in collaboration with the National Institute of Mental Health’s Psychoactive Drug Screening Program (PDSP), as mentioned before. Concentration-dependent experiments were conducted to determine Ki values for the compounds that exceeded more than 50% radioligand displacement in primary binding assays.
as §2, §3

5-HT6 = target: T5, 5-HT6 (Homo sapiens, UniProt P50406); assay: PDSP primary binding 5-HT6; settings: 1.5 h; primary binding, 10,000 nM; last figure of the line = mean of the 4 before it; read-out: 5-HT6, PDSP raw data, mean
T5 construct: purchased NIMH Psychoactive Drug Screening Program (PDSP)
Procedure: as §1, §2, §3

Alpha4Beta2 (Rat Brain) = target: T6, Alpha4Beta2 (Rat Brain) (Rattus norvegicus, UniProt P09483+P12390); assay: PDSP primary binding Alpha4Beta2 (Rat Brain); settings: primary binding, 10,000 nM; last figure of the line = mean of the 4 before it; read-out: Alpha4Beta2 (Rat Brain), PDSP raw data, mean
T6 construct: purchased NIMH Psychoactive Drug Screening Program (PDSP)
Procedure: as §1, §2, §3

5-HT7A = target: T7, 5-HT7A (Homo sapiens, UniProt P34969); assay: PDSP primary binding 5-HT7A; settings: 1.5 h; primary binding, 10,000 nM; last figure of the line = mean of the 4 before it; read-out: 5-HT7A, PDSP raw data, mean
T7 construct: purchased NIMH Psychoactive Drug Screening Program (PDSP)
Procedure: as §1, §2, §3

M1 = target: T8, M1 (Homo sapiens, UniProt P11229); assay: PDSP primary binding M1; settings: primary binding, 10,000 nM; last figure of the line = mean of the 4 before it; read-out: M1, PDSP raw data, mean
T8 construct: purchased NIMH Psychoactive Drug Screening Program (PDSP)
T8 sequence (P11229 1-460): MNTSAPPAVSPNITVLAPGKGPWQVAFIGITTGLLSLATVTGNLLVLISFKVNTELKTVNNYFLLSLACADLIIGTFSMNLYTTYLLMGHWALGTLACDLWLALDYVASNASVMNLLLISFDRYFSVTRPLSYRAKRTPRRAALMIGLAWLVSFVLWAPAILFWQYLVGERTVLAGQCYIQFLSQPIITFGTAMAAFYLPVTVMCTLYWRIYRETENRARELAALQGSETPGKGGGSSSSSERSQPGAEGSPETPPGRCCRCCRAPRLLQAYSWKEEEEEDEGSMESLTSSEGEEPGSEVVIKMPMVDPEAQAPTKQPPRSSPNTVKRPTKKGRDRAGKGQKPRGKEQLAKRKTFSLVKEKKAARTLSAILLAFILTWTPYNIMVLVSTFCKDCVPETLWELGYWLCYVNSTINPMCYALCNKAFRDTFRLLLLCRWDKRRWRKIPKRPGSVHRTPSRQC
Procedure: as §1, §2, §3

D1 = target: T9, D1 (Homo sapiens, UniProt P21728); assay: PDSP primary binding D1; settings: 1.5 h; primary binding, 10,000 nM; last figure of the line = mean of the 4 before it; read-out: D1, PDSP raw data, mean
T9 construct: purchased NIMH Psychoactive Drug Screening Program (PDSP)
Procedure: as §1, §2, §3

[1] = at 10,000 nM, N = 5, [3H]-DADLE 2.69 nM, read-out: Primary Binding %DOR
[2] = primary binding, 10,000 nM, last figure of the line = mean of the 4 before it, read-out: DOR, PDSP raw data, mean

T6 sequence (P09483 31-630): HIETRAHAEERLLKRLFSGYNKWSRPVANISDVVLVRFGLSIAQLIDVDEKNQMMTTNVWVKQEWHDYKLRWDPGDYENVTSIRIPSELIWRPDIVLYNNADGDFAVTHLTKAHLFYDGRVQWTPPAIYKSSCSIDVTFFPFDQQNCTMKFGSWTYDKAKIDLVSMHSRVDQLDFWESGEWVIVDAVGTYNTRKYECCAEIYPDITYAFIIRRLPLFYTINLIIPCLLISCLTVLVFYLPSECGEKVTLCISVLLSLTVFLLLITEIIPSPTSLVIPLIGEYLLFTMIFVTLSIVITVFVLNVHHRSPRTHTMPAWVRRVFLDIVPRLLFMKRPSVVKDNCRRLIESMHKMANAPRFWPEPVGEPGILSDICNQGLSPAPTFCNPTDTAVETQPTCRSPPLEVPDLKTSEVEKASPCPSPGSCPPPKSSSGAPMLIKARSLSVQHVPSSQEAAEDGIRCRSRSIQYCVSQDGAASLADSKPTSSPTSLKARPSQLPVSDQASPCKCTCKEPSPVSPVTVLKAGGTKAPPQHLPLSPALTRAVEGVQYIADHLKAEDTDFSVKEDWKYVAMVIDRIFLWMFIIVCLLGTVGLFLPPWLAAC
T6 sequence (P12390 25-500): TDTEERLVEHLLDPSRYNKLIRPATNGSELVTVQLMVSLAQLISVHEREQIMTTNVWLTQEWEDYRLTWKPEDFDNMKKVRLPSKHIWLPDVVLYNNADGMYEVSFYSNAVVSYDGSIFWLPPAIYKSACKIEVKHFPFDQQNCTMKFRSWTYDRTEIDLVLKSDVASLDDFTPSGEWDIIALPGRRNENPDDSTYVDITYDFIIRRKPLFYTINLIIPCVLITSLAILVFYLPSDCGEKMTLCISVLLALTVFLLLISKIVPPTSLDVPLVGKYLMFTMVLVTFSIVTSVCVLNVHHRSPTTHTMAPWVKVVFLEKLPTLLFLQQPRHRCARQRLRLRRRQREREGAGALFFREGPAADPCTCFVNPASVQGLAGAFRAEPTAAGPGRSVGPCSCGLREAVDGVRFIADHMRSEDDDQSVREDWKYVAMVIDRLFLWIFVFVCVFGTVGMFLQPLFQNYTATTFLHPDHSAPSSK
T7 sequence (P34969 1-445 isoform P34969-2): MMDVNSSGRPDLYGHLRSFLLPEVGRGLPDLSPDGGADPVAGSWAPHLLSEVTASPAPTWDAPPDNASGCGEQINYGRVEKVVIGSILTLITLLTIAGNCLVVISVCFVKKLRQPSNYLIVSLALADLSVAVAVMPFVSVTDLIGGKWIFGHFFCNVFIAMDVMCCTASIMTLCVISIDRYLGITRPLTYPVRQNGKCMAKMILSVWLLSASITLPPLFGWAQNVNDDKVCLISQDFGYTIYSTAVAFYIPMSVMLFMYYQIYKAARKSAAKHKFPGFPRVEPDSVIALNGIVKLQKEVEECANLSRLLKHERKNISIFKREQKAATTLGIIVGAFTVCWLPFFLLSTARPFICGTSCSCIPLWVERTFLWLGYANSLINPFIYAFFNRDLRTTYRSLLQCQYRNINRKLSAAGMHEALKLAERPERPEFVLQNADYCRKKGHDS
T4 sequence (P41143 whole entry): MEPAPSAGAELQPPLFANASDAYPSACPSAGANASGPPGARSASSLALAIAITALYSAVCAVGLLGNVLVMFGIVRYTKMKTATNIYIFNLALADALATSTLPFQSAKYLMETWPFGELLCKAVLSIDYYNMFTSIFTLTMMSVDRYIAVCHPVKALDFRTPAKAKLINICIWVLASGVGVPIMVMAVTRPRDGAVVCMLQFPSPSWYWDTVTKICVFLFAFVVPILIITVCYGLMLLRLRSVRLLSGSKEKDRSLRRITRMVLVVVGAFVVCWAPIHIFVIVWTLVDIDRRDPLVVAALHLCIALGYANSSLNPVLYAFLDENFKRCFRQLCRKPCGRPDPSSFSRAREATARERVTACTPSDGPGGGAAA
T3 sequence (P13945 whole entry): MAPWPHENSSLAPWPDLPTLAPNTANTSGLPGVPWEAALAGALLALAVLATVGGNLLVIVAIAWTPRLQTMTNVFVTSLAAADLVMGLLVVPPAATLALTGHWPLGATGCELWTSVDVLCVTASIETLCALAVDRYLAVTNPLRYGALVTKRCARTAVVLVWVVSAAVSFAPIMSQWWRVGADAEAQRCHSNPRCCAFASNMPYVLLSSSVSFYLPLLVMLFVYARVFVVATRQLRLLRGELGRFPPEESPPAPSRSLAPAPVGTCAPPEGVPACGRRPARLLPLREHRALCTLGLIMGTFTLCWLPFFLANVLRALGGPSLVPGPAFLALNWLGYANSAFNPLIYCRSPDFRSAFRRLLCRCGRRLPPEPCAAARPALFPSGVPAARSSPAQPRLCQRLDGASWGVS
T5 sequence (P50406 whole entry): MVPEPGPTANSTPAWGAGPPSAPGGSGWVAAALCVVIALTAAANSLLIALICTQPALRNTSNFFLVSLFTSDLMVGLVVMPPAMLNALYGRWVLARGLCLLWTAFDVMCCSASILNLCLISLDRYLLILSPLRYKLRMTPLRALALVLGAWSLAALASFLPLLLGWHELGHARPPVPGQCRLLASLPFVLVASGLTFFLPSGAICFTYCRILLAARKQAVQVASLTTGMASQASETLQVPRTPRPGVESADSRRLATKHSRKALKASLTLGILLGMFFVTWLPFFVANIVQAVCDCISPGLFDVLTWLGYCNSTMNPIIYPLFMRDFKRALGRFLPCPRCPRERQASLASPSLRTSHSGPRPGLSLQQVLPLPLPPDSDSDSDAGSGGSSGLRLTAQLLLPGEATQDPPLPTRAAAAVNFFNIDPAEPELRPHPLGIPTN
T9 sequence (P21728 whole entry): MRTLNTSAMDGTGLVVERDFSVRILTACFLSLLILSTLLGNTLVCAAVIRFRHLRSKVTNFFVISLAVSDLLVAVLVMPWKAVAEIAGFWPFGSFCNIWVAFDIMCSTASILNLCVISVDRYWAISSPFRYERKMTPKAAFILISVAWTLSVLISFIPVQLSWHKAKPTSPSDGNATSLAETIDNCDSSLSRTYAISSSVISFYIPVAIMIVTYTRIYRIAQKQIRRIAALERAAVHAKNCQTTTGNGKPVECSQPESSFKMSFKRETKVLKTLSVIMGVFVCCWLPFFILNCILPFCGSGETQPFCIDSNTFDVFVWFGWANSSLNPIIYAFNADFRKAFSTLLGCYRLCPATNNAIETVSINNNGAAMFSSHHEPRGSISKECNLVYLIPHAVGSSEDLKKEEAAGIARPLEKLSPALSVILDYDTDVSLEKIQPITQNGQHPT
T2 sequence (P29274 whole entry): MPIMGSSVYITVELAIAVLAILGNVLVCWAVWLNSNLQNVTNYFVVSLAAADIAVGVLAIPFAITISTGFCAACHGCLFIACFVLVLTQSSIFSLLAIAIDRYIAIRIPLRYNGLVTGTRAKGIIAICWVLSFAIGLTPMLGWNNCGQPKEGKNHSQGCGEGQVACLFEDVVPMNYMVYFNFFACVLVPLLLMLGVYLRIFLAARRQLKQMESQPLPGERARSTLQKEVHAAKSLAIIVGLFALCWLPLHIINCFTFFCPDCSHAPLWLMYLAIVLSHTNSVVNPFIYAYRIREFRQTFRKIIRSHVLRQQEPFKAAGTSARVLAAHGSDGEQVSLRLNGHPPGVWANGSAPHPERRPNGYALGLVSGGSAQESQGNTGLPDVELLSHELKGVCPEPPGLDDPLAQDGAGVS

Row | Structure (SMILES) | inhibition at 10 µM (M4 D) [%] | A2A, PDSP raw data, mean (A2A) [%] | Kainate (Rat Brain), PDSP raw data, mean (Kainate (Rat Brain)) [%] | inhibition at 10 µM (Beta3) [%] | inhibition at 10 µM (DOR; [1]) [%] | inhibition at 10 µM (DOR; [2]) [%] | inhibition at 10 µM (5-HT6) [%] | inhibition at 10 µM (Alpha4Beta2 (Rat Brain)) [%] | inhibition at 10 µM (5-HT7A) [%] | inhibition at 10 µM (M1) [%] | inhibition at 10 µM (D1) [%]
1 | CC(C)c1noc(-c2ncn3c2[C@@H](C)N=C(c2ccccc2F)c2cc(Cl)ccc2-3)n1 [Compound 37, (R)-5-(8-Chloro-6-(2′-fluorophenyl)-4-methyl-4H-benzo[f]imidazo[1,5-a][1,4]diazepin-3-yl)-3-isopropyl-1,2,4-oxadiazole] | -19.7 | -1.87 | 35.39 | 46 | 31.9 ± 9.58 | 31.9 | -1.65 | -0.61 | 12.1 | -0.48 | 27.4
2 | C[C@H]1N=C(c2ccccc2F)c2cc(Cl)ccc2-n2cnc(-c3nc(C4CC4)no3)c21 [Compound 38, (R)-5-(8-Chloro-6-(2′-fluorophenyl)-4-methyl-4H-benzo[f]imidazo[1,5-a][1,4]diazepin-3-yl)-3-cyclopropyl-1,2,4-oxadiazole] | -18.7 | 19.95 | 36.46 | 24.2 | 42.8 ± 8.94 | 42.7 | -6.37 | 0.48 | 11.9 | -0.23 | 43
3 | C#Cc1ccc2c(c1)C(c1ccccc1Cl)=N[C@H](C)c1c(C(=O)NC)ncn1-2 [Compound 21, (R)-6-(2′-Chlorophenyl)-8-ethynyl-N,4-dimethyl-4H-benzo[f]imidazo[1,5-a][1,4]diazepine-3-carboxamide] | 1.13 | -13.5 | -4.58 | 10.7 | 28.3 ± 4.67 | 28.3 | -8.24 | 0.7 | -12.3 | -8.29 | 9.47
4 | C#Cc1ccc2c(c1)C(c1ccccc1Cl)=N[C@H](C)c1c(C(=O)N(C)CC)ncn1-2 [Compound 29] | 46.2 | -10.24 | 16.79 | 9.72 | 39.5 ± 3.21 | 39.5 | 14.9 | 0.03 | -2.22 | 4.95 | -31.5
5 | CCc1noc(-c2ncn3c2[C@@H](C)N=C(c2ccccc2F)c2cc(C4CC4)ccc2-3)n1 [Compound 46, (R)-5-(8-Cyclopropyl-6-(2′-fluorophenyl)-4-methyl-4H-benzo[f]imidazo[1,5-a][1,4]diazepin-3-yl)-3-ethyl-1,2,4-oxadiazole] | 33.1 | 27.25 | 38.21 | 31.1 |  | 67.3 | 71.5 | -5.79 | 4.98 | 0.86 | 74.6
6 | CCc1noc(-c2ncn3c2CN=C(c2ccccc2F)c2cc(C4CC4)ccc2-3)n1 [Compound 44, 5-(8-Cyclopropyl-6-(2′-fluorophenyl)-4H-benzo[f]imidazo[1,5-a][1,4]diazepin-3-yl)-3-ethyl-1,2,4-oxadiazole] | 35.9 | 21.36 | 42.42 | -4.01 | 81.3 ± 4.76 | 81.3 | 27.6 | -0.99 | 9.22 | 9.28 | 49.6
7 | CCc1noc(-c2ncn3c2[C@@H](C)N=C(c2ccccc2F)c2cc(Cl)ccc2-3)n1 [Compound 36, (R)-5-(8-Chloro-6-(2′-fluorophenyl)-4-methyl-4H-benzo[f]imidazo[1,5-a][1,4]diazepin-3-yl)-3-ethyl-1,2,4-oxadiazole] | 26.6 | 1.43 | 42.86 | 1.76 | 40.7 ± 10.2 | 40.7 | 10.8 | 3.25 | 1.53 | -0.27 | 42.8
8 | CCc1noc(-c2ncn3c2[C@@H](C)N=C(c2ccccc2F)c2cc(-c4ccccc4)ccc2-3)n1 [Compound 35, (R)-3-Ethyl-5-(6-(2′-fluorophenyl)-4-methyl-8-phenyl-4H-benzo[f]imidazo[1,5-a][1,4]diazepin-3-yl)-1,2,4-oxadiazole] | 15.7 | 19.84 | 33.32 | 27.9 | 52.7 ± 4.38 | 52.7 | 10.3 | -11.6 | 8.12 | -1.63 | 29.2
9 | C#Cc1ccc2c(c1)C(c1ccccc1F)=N[C@H](C)c1c(C(=S)N(C)C)ncn1-2 [Compound 33, (R)-8-Ethynyl-6-(2′-fluorophenyl)-N,N,4-trimethyl-4H-benzo[f]imidazo[1,5-a][1,4]diazepine-3-carbothioamide] | 27.2 | 11.57 | 3.43 | -19.4 | 13.2 ± 7.83 | 43 | 24.6 | -5.7 | 4.31 | -1.6 | -35.4
